From patent publication US20260174814A1 (DR. OREGONIN INC., priority 2023, published 2026)

Assay: Protective effect on dexamethasone-induced myotube cell damage (MTT assay)
Format: cell-based
Conditions: mouse, C2C12 cells differentiated into myotubes, 5 μM dexamethasone alone, read-out: decrease of cell viability compared to the control group not treated with dexamethasone
Experimental: C2C12 cells, a myoblast derived from mouse skeletal muscle, were purchased from American Type Culture Collection (ATCC) and used. C2C12 cells were cultured in a 37° C.-wet CO2 incubator (5% CO2/95% air) using a cell culture medium in which 10% fetal bovine serum (FBS), 100 units/mL penicillin, and 100 μg/mL streptomycin were added to Dulbecco's Modified Eagle Medium (DMEM). When the cells were 80% full, the cell monolayer was washed with phosphate buffer saline (PBS, pH 7.4), trypsin-2.65 mM EDTA was added thereto, and the cells were detached and subcultured, and the medium was exchanged every 2 days. In order to induce differentiation into myotubes of C2C12 cells, the cells were cultured by exchange with a myocyte differentiation culture medium in which 2% horse serum (HS) was added to DMEM medium, and the myocyte differentiation culture medium was exchanged every 2 days.
C2C12 cells were seeded in 24-well plate at 5×10^4 cells/well and cultured for 24 hours. Thereafter, in order to induce differentiation into myotubes of C2C12 cells, the cell culture medium was exchanged with the myocyte differentiation culture medium to induce differentiation for 4 days. […] After the cells were cultured for 24 hours, MTT assay was performed in the same manner as described above to measure the cell viability.

## C[C@@H]1C[C@H]2[C@@H]3CCC4=CC(=O)C=C[C@]4(C)[C@@]3(F)[C@@H](O)C[C@]2(C)[C@@]1(O)C(=O)CO [dexamethasone]
  cytotoxicity at 24 h, 5 μM: ~10%
